The record followed here is patent publication US12275715B2, “Pyridin-2(1H)-one quinolinone derivatives as mutant-isocitrate dehydrogenase inhibitors” (FORMA Therapeutics, Inc., priority 2014, dated 2025).

In assay [1] the target is IDH1-R132H recombinant protein (Homo sapiens, UniProt O75874, R132H). Briefly: IDH1-R132H enzymatic assay (NADPH consumption, diaphorase/resazurin readout). In kind it is biochemical. The settings on record: read-out: Enzyme IDH1 R132H Range. Here is the method: (§1) Assays were performed in a 384-well black plate. […] After the plate was centrifuged briefly, an aliquot of 10 μL of 2 mM α-ketoglutarate and 20 μM NADPH solution prepared in assay buffer was then added to each well and the reaction was maintained at 25° C. for 45 minutes. An aliquot of 10 μL of diaphorase solution (0.15 U/mL diaphorase and 30 μM Resazurin in assay buffer) was added to each well. […] The IC50 of a given compound was calculated by fitting the dose response curve of inhibition of NADPH consumption at a given concentration with the four parameter logistic equation.
In general terms: Resazurin is reduced to fluorescent resorufin, in cell work by metabolically active cells.

Assay [2] deals with IDH1-R132C recombinant protein (Homo sapiens, UniProt O75874, R132C). In words: IDH1-R132C enzymatic assay (NADPH consumption, diaphorase/resazurin readout). The class given is biochemical. As to conditions: read-out: Enzyme IDH1 R132C Range. Here is the method:
as §1

The subject of assay [3] is HCT116 isogenic IDH1-R132H mutant cells. Briefly: Cellular 2-HG assay using HCT116 mutant IDH1 cells (R132H). The class given is cell-based. The settings on record: Homo sapiens, HCT-116; cellular 2-HG inhibition, 24 hours, RapidFire mass spectrometry; read-out: HCT116 IDH1 R132H Range. Here is the method:
(§2) HCT116 isogenic IDH1-R132H and IDH1-R132C mutant cells were cultured in growth media (McCoy's 5A, 10% fetal bovine serum, 1× antibiotic-antimycotic solution and 0.3 mg/mL G418) in 5% CO2 in an incubator at 37° C. To prepare the assay, cells were trypsinized and resuspended in assay media (McCoy's 5A with no L-glutamine, 10% fetal bovine serum, 1× antibiotic-antimycotic solution and 0.3 mg/mL G418). An aliquot of 10,000 cells/100 μL was transferred to each well of a clear 96-well tissue culture plate. The cells were incubated in 5% CO2 at 37° C. in an incubator overnight to allow for proper cell attachment. An aliquot of 50 μL of compound containing assay media were then added to each well and the assay plate was kept in 5% CO2 at 37° C. in an incubator for 24 hours. The media was then removed from each well and 150 μL of a methanol/water mixture (80/20 v/v) was added to each well. The plates were kept at −80° C. freezer overnight to allow for complete cell lysis. An aliquot of 125 μL of extracted supernatant was analyzed by RapidFire high-throughout-mass spectrometry (Agilent) to determine the cellular 2-HG level. The IC50 of a given compound was calculated by fitting the dose response curve of cellular 2-HG inhibition at a given concentration with the four parameter logistic equation

The subject of assay [4] is HCT116 isogenic IDH1-R132C mutant cells. Briefly: Cellular 2-HG assay using HCT116 mutant IDH1 cells (R132C). In kind it is cell-based. As to conditions: Homo sapiens, HCT-116; cellular 2-HG inhibition, 24 hours, RapidFire mass spectrometry; read-out: HCT116 IDH1 R132C Range. Here is the method:
as §2

pIC50: −log10 of the molar value.

IDH1-R132C recombinant protein, sequence (O75874 whole entry R132C): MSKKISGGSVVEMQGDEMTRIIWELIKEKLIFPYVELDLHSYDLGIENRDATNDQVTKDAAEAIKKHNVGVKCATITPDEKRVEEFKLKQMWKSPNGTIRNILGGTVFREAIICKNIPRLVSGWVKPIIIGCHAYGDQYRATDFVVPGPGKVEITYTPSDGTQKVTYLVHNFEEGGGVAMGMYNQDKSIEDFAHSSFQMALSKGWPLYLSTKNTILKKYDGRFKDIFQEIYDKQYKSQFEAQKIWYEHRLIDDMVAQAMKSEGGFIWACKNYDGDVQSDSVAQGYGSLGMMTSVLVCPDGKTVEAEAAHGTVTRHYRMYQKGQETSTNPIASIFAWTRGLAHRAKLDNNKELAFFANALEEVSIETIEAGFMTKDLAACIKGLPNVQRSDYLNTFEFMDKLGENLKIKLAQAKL
IDH1-R132H recombinant protein, sequence (O75874 whole entry R132H): as the sequence (O75874 whole entry R132C) above, with C132H counted along it

On to `N#Cc1ccc(NCc2cc3cc(Cl)ccc3[nH]c2=O)c(=O)[nH]1` [Compound I-4, 5-{[(6-chloro-2-oxo-1,2-dihydroquinolin-3-yl)methyl]amino}-6-oxo-1,6-dihydropyridine-2-carbonitrile], for which the pIC50 is 7.00 to 8.00 in assay [1] and 6.00 to 7.00 in assay [2].

With `O=c1[nH]c2ccc(Cl)cc2cc1CNc1ccc(Br)[nH]c1=O` [Compound I-7, 3-{[(6-bromo-2-oxo-1,2-dihydropyridin-3-yl)amino]methyl}-6-chloro-1,2-dihydroquinolin-2-one], in assay [1], the pIC50 was less than 6.00.

Consider `O=c1[nH]c2ccc(Cl)cc2cc1CNc1ccc(C(F)(F)F)[nH]c1=O` [Compound I-8, 6-chloro-3-({[2-oxo-6-(trifluoromethyl)-1,2-dihydropyridin-3-yl]amino}methyl)-1,2-dihydroquinolin-2-one], for which the pIC50 in assay [1] is less than 6.00.

Consider `Cn1c(C(F)(F)F)ccc(NCc2cc3cc(Cl)ccc3[nH]c2=O)c1=O` [Compound I-9, 6-chloro-3-({[1-methyl-2-oxo-6-(trifluoromethyl)-1,2-dihydropyridin-3-yl]amino}methyl)-1,2-dihydroquinolin-2-one], for which the pIC50 was 6.00 to 7.00 in assay [1] and less than 5.00 in assay [2].

With `COC(=O)c1c[nH]c(=O)c(NCc2cc3cc(Cl)ccc3[nH]c2=O)c1` [Compound I-10, methyl 5-{[(6-chloro-2-oxo-1,2-dihydroquinolin-3-yl)methyl]amino}-6-oxo-1,6-dihydropyridine-3-carboxylate], the pIC50 in assay [1] was less than 6.00.

`Cn1cccc(NCc2cc3cc(Cl)c(OCc4ccccn4)cc3[nH]c2=O)c1=O` [Compound I-12, 6-chloro-3-{[(1-methyl-2-oxo-1,2-dihydropyridin-3-yl)amino]methyl}-7-(pyridin-2-ylmethoxy)-1,2-dihydroquinolin-2-one]: the pIC50 in assay [1] was 7.00 to 8.00; in assay [2], less than 5.00.

For the compound `C[C@H](Nc1ccc(C#N)n(C)c1=O)c1cc2cc(Cl)ccc2[nH]c1=O` [Compound I-13, (S)-5-((1-(6-chloro-2-oxo-1,2-dihydroquinolin-3-yl)ethyl)amino)-1-methyl-6-oxo-1,6-dihydropyridine-2-carbonitrile], the pIC50 in assay [3] and in assay [4] was 7.00 to 8.00 throughout.

Turning to `C[C@H](Nc1ccc(C#N)[nH]c1=O)c1cc2cc(Cl)ccc2[nH]c1=O` [Compound I-14, 5-{[(1S)-1-(6-chloro-2-oxo-1,2-dihydroquinolin-3-yl)ethyl]amino}-6-oxo-1,6-dihydropyridine-2-carbonitrile], the pIC50 in assay [3] is 7.00 to 8.00; in assay [4], 6.00 to 7.00; in assay [1], 7.00 to 8.00; in assay [2] it was 6.00 to 7.00.

Regarding `C[C@H](Nc1ccc(C#N)n(C)c1=O)c1cc2cc(Cl)c(F)cc2[nH]c1=O` [Compound I-16, 5-{[(1S)-1-(6-chloro-7-fluoro-2-oxo-1,2-dihydroquinolin-3-yl)ethyl]amino}-1-methyl-6-oxo-1,6-dihydropyridine-2-carbonitrile], the pIC50 was 7.00 to 8.00 in assay [3], 6.00 to 7.00 in assay [4], 7.00 to 8.00 in assay [1] and 6.00 to 7.00 in assay [2].

Consider `C[C@H](Nc1ncc(C#N)n(C)c1=O)c1cc2cc(Cl)ccc2[nH]c1=O` [Compound I-17, 5-{[(1S)-1-(6-chloro-2-oxo-1,2-dihydroquinolin-3-yl)ethyl]amino}-1-methyl-6-oxo-1,6-dihydropyrazine-2-carbonitrile], for which the pIC50 in assay [3] is 7.00 to 8.00; in assay [4], 6.00 to 7.00; in assay [1], 7.00 to 8.00; in assay [2] it was 6.00 to 7.00.

Consider `C[C@@H](Nc1ccc(C#N)n(C)c1=O)c1cc2cc(Cl)c(F)cc2[nH]c1=O` [Compound I-18, 5-{[(1R)-1-(6-chloro-7-fluoro-2-oxo-1,2-dihydroquinolin-3-yl)ethyl]amino}-1-methyl-6-oxo-1,6-dihydropyridine-2-carbonitrile], for which the results for the pIC50 in assay [1] and in assay [2] were less than 6.00 and less than 5.00, respectively.

`CC(Nc1ccc(C#N)n(C)c1=O)c1cc2cc(Cl)c(F)cc2[nH]c1=O` (stereo not drawn) [Compound I-19, 5-{[1-(6-chloro-7-fluoro-2-oxo-1,2-dihydroquinolin-3-yl)ethyl]amino}-1-methyl-6-oxo-1,6-dihydropyridine-2-carbonitrile]: the pIC50 in assay [3] is 7.00 to 8.00; in assay [4] it was 7.00 to 8.00; in assay [1], 7.00 to 8.00; in assay [2], 6.00 to 7.00.

Consider `COc1cc2[nH]c(=O)c([C@H](C)Nc3ccc(C#N)n(C)c3=O)cc2cc1Cl` [Compound I-20, 5-{[(1S)-1-(6-chloro-7-methoxy-2-oxo-1,2-dihydroquinolin-3-yl)ethyl]amino}-1-methyl-6-oxo-1,6-dihydropyridine-2-carbonitrile], for which the figures for the pIC50 in assay [3] and in assay [4] were greater than 8.00 and 7.00 to 8.00, respectively.

For `COc1cc2[nH]c(=O)c(C(C)Nc3ccc(C#N)n(C)c3=O)cc2cc1Cl` (stereo not drawn) [Compound I-22, 5-{[1-(6-chloro-7-methoxy-2-oxo-1,2-dihydroquinolin-3-yl)ethyl]amino}-1-methyl-6-oxo-1,6-dihydropyridine-2-carbonitrile], the figures for the pIC50 in assay [3] and in assay [4] were greater than 8.00 and 7.00 to 8.00, respectively.

With `C[C@H](Nc1ccc(C#N)n(C)c1=O)c1cc2cc(Cl)c(OCc3ccccn3)cc2[nH]c1=O` [Compound I-23, 5-{[(1S)-1-[6-chloro-2-oxo-7-(pyridin-2-ylmethoxy)-1,2-dihydroquinolin-3-yl]ethyl]amino}-1-methyl-6-oxo-1,6-dihydropyridine-2-carbonitrile], the pIC50 in assay [3] and in assay [4] was greater than 8.00 throughout.

As to `CC(Nc1ccc(C#N)n(C)c1=O)c1cc2cc(Cl)c(OCc3ccccn3)cc2[nH]c1=O` (stereo not drawn) [Compound I-25, 5-({1-[6-chloro-2-oxo-7-(pyridin-2-ylmethoxy)-1,2-dihydroquinolin-3-yl]ethyl}amino)-1-methyl-6-oxo-1,6-dihydropyridine-2-carbonitrile], the pIC50 in assay [3] and in assay [4] was greater than 8.00 each time.

`C[C@H](Nc1ccc(C#N)n(C)c1=O)c1cc2cc(Cl)c(O[C@H](C)c3ccccn3)cc2[nH]c1=O` [Compound I-26, 5-(((S)-1-(6-chloro-2-oxo-7-((R)-1-(pyridin-2-yl)ethoxy)-1,2-dihydroquinolin-3-yl)ethyl)amino)-1-methyl-6-oxo-1,6-dihydropyridine-2-carbonitrile]: the pIC50 in assay [3] and in assay [4] was greater than 8.00 throughout.

For `C[C@H](Nc1ccc(C#N)n(C)c1=O)c1cc2cc(Cl)c(OCC3CC3)cc2[nH]c1=O` [Compound I-27, 5-{[(1S)-1-[6-chloro-7-(cyclopropylmethoxy)-2-oxo-1,2-dihydroquinolin-3-yl]ethyl]amino}-1-methyl-6-oxo-1,6-dihydropyridine-2-carbonitrile], the results for the pIC50 in assay [3] and in assay [4] were greater than 8.00 and 7.00 to 8.00, respectively.

Consider `CC(Nc1ccc(C#N)n(C)c1=O)c1cc2cc(Cl)c(OCC3CC(F)(F)C3)cc2[nH]c1=O` (stereo not drawn) [Compound I-28, 5-[(1-{6-chloro-7-[(3,3-difluorocyclobutyl)methoxy]-2-oxo-1,2-dihydroquinolin-3-yl}ethyl)amino]-1-methyl-6-oxo-1,6-dihydropyridine-2-carbonitrile], for which the pIC50 in assay [3], in assay [4] and in assay [1] was 7.00 to 8.00 in each case.

`CC(C)Oc1cc2[nH]c(=O)c([C@H](C)Nc3ccc(C#N)n(C)c3=O)cc2cc1Cl` [Compound I-29, 5-{[(1S)-1-[6-chloro-2-oxo-7-(propan-2-yloxy)-1,2-dihydroquinolin-3-yl]ethyl]amino}-1-methyl-6-oxo-1,6-dihydropyridine-2-carbonitrile]: the pIC50 in assay [3] and in assay [4] was 7.00 to 8.00 throughout.

With `C[C@H](Nc1ccc(C#N)n(C)c1=O)c1cc2cc(Cl)cc(F)c2[nH]c1=O` [Compound I-30, 5-{[(1S)-1-(6-chloro-8-fluoro-2-oxo-1,2-dihydroquinolin-3-yl)ethyl]amino}-1-methyl-6-oxo-1,6-dihydropyridine-2-carbonitrile], the pIC50 in assay [3] was 7.00 to 8.00; in assay [4], 6.00 to 7.00; in assay [1] it was 7.00 to 8.00; in assay [2] it was 6.00 to 7.00.

In the case of `C[C@H](Nc1ccc(C#N)n(C)c1=O)c1cc2cc(Cl)cnc2[nH]c1=O` [Compound I-31, 5-{[(1S)-1-(6-chloro-2-oxo-1,2-dihydro-1,8-naphthyridin-3-yl)ethyl]amino}-1-methyl-6-oxo-1,6-dihydropyridine-2-carbonitrile], the pIC50 in assay [3] is 7.00 to 8.00; in assay [4] it was less than 6.00; in assay [1], 6.00 to 7.00; in assay [2], 5.00 to 6.00.
